# Biological target: T1, Gr180 (Helicoverpa armigera, UniProt Z9OE30KH69)
# T1 construct: wild type 411 residues (239 + 172 as printed); seven TM domains predicted
# T1 sequence (Z9OE30KH69 1-411): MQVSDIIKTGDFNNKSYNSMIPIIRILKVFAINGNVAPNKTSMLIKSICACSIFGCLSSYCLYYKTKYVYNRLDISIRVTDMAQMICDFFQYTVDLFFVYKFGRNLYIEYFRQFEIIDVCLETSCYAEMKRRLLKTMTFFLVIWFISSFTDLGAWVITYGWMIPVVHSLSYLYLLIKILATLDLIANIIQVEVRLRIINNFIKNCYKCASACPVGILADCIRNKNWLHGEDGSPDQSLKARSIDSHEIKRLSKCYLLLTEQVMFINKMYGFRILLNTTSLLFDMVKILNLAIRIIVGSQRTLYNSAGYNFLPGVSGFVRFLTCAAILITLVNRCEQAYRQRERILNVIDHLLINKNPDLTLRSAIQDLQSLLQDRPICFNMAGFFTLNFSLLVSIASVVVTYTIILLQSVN
# Experiment: two-electrode voltage clamp, Xenopus oocytes
# Assay type: cell-based
# Conditions: 10^-2 M coumarin in Ringer solution; holding potential -80 mV; Gr180 expressed alone; agonist
compound,measurement,value
O=c1ccc2ccccc2o1 [coumarin],average current at 10^-2 M,241 nA

# From paper PMC9581421, “Functional analysis of a bitter gustatory receptor highly expressed in the larval maxillary galea of Helicoverpa armigera” (PLoS Genetics, 2022)
